“Also recorded” adds a separate entry of the source. Values belong to the molecule of their own block, whether it stands above or below them. Where no end group is shown, it is not given here.
Columns and labels:
[1] = tested on: allergen specific T cells; assay: T cell proliferation assay (72 h) on donor derived T cell lines (TCL02/TCL03); format: cell-based, human; conditions: reference peptides of WO2010/089554, proliferation only
How it was run: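 Overlapping 20-mer and selected 15-mer grass allergen peptides were screened for proliferation using TCL02 (day 24) or TCL03 (day 34) lines. Lines came from grass-allergic donors' CD8-depleted PBMCs, primed with natural allergen mix and expanded with irradiated autologous or allogeneic APCs, PHA-P 0.5 μg/ml and rIL-2.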

[2] = tested on: grass pollen allergic donor derived T cell lines; assay: Dose response titration in T cell proliferation assay; format: cell-based, human
Description: The dose-response relationship was tested by measuring the percentage of donor response (i.e. the percentage of donor coverage) in concentrations of 2.0, 0.1, 0.005 and 0.00025 μg/ml for the peptide combinations and in concentrations of 2.0, 0.2, 0.02 and 0.002 μg/ml for single peptides. The donor response was determined using T cell proliferation data as described in Example 3.
Relative magnitude value for a peptide or a peptide combination was calculated as percentage of highest T cell response to an allergen or a mix, by the same donor. In this way, allergen or peptide combination with highest magnitude of T cell response gets a value of 100 and T cell response magnitude of remaining peptides/peptide combinations are normalized or calculated relative to 100, for example Relative magnitude=100*(T cell response magnitude of peptide or combination/Highest T cell response in a donor). Relative magnitude were calculated mainly on Phl p 1. For donors non reactive to Phl p 1, Phl p 5 was used as reference
The donors were selected by seeking to maximize the HLA class II diversity in the donor cohort.
For peptide combinations, two set-ups were used:
A) Concentrations of 2.0, 0.1, 0.005 and 0.00025 μg/ml were tested on a set of T cell lines derived from 9 grass pollen allergic donors (same experiment as the data shown in FIG. 7b.).
B) Concentrations of 2.0, 0.066, 0.0022 and 0.00007 μg/ml were used on a set of T cell lines derived from 18 grass pollen allergic donors (same set as the donors used for testing of single peptides as described above).
Relative magnitude value for a peptide or a peptide combination was calculated as percentage of highest T cell response to an allergen or a mix, by the same donor. In this way, allergen or peptide combination with highest magnitude of T cell response gets a value of 100 and T cell response magnitude of remaining peptides/peptide combinations are normalized or calculated relative to 100, for example Relative magnitude=100*(T cell response magnitude of peptide or combination/Highest T cell response in a donor). […]

[3] = tested on: grass allergic donor derived T cell lines (TCL-02 DK-2); assay: Cross-reactivity of homologue peptides, proliferation on TCL02-DK2 (Study XR1); format: cell-based, human; conditions: for experimental cross-reactivity: 2 μg/ml, TCL02-DK2, 21 donors
Description: To measure the experimental cross-reactivity the proliferation assay of Example 3 was carried out on 21 grass allergic donors (TCL02-DK2). […] Cross-reactivity to Phleum pratense peptides with either close (Lolium perenne (Lol p)) or distant (Phalaris aquatica (Pha a), Cynodon dactylon (Cyn d)) species was experimentally investigated.
For analysing the cross-reactivity data, it was investigated if a donor responds to both native and homologue peptide, XY correlation plots were made where the donor responses to native peptides were plotted versus the donor responses to homologues. […] If less than five donors were responding to the parent peptides, then the data was considered to be in-conclusive, and were thus labelled with “-”. For some of the peptides the analysis was further supported by performing a Spearman r-Non Parametric test (data not shown).
Further the magnitude of T cell response from a parent peptide as defined herein and homologue response were plotted in a XY plot by using GraphPad Prism 6.
To measure the experimental cross-reactivity, the proliferation assay of Example 3 was carried out on 21 grass pollen allergic donors (TCL02-DK2, Study XR1) and 20 grass pollen allergic donors (TCL03−DK1+DK2, Study XR2). […] In Study XR1, Cross-reactivity to Phleum pratense peptides with either close (Lolium perenne-Lol p) or distant ([…]-Pha a, Cynodon dactylon-Cyn d) species was experimentally investigated. In Study XR1, 67 homologue peptides corresponding to 41 native Phleum pratense peptides were investigated together with the 41 Phleum pratense peptides at a concentration of 2 μg/ml. Similarly, study XR2 was carried out on 20 grass pollen allergic donors where donor derived TCL-03 lines were used to investigate Phleum pratense cross-reactivity to Poa pratensis (Poa p), Dactylis glomerata (Dac g), Festuca pratensis (Fes p), Paspalum notatum (Pas n), Sorghum halepense (Sor h), Lolium perenne (Lol p), Phalaris aquatica (Pha a) and Cynodon dactylon (Cyn d).

[4] = Peptide solubility by visual inspection; format: physicochemical
Description: Water (pH 3-5) • 2. 250 mM D-Mannitol and 25 mM sodium acetate, pH 4.5 • 3. 250 mM D-Mannitol and 25 mM sodium phosphate, pH 7.0 • 4. […] Water (pH 3-5) • 2. 250 mM D-Mannitol and 25 mM sodium acetate, pH 4.5 • 3. 250 mM D-Mannitol and 25 mM sodium phosphate, pH 7.0 • 4. […] A subset of the peptides was selected as candidate peptides for a final peptide mixture. […] During the solubility studies the peptide-containing solutions were inspected visually before and after filtration for turbidity, and presence of particles/aggregates. In addition, presence of turbidity/particles/aggregates was also detected by optical density (OD) or absorbance of filtered material, but might also be detected by size-exclusion chromatography. Furthermore, Sub-visual particles may also be detected by dynamic light scattering (DLS) analysis on filtered and non-filtered peptide containing solutions. Samples were furthermore subjected to centrifugation to allow for the possible visual inspection of pelleted material.

[5] = tested on: grass pollen allergic donor derived TCL-03 lines; assay: Extended cross-reactivity study, proliferation on TCL03 DK1+DK2 (Study XR2), scoring; format: cell-based, human; conditions: study XR2; for Cross-reactivity score, Dac g: homologue from Dac g; for Cross-reactivity score, Lol p: homologue from Lol p; for Cross-reactivity sum: scores of all species added; for Cross-reactivity/species: sum divided by the number of species measured
[6] = Extended solubility and short term stability study (visual, U-HPLC recovery, DLS, 90LS, UV-VIS, sum of scores); conditions: for solubility: pH 4.5
Description: For that purpose, the peptides were provided as acetate salts (produced by Innovagen® at a >10 mg scale of manufacturing). To take into account batch-to-batch variations, some peptides were tested from other batches of the manufacturer Innovagen®, as well as from another manufacturer (Almac) and from in-house production. Solubility experiments were performed on peptide in solution in concentrations ranging from 0.5 mg/mL to 3 mg/mL (dry matter)—with the following solvents: • Water • Acetate buffer, pH 4.5 (25 mM sodium acetate containing 250 mM D-Mannitol) • Phosphate buffer, pH 7.0 (25 mM sodium phosphate containing 250 mM D-Mannitol) • Glycine buffer, pH 8.5 (25 mM glycine containing 250 mM D-Mannitol)
The solubility of the peptides was initially investigated by visual inspection and U-HPLC recovery. Visual inspection included assessment of turbidity and presence of particles/aggregates of each peptide solution before and after centrifugation as well as visual inspection of pelleted material. The visual inspection were reported as “clear solution”, “very small precipitation only visible with a magnifier”, “precipitation visible/turbid solution” or “more precipitation/turbid solution”. Filtration of peptide solutions were conducted using syringe based filters containing a polyethersulfone (PES) membrane chemistry and a pore size of 0.2 μm. The amount of the peptide in the supernatant of a filtered sample was determined using U-HPLC with reverse phase chromatography and recovery were determined as described in Example 5.
Peptide solutions were investigated at a time point of 1 hour after production, but were also repeated at later time point (e.g. 24. 48 or 96 hours) to investigate the stability of the peptides.
Peptide solutions were investigated to determine the presence of turbidity/particles/aggregates by use of optical density (OD) and change in UV-VIS absorbance at a wavelength of 320 nm, of the filtrate. […] In addition or as an alternative, the amount of the peptide in the supernatant of a filtered sample was determined using U-HPLC as described above, with the exception that the recovery was determined by dividing the peak area of the filtered sample in relation to the peak area in the original solution prior to filtration. See also Example 5 for further details regarding UV-VIS, and recovery measured by U-HPLC.
The peptides were scored in relation to the outcome of the above mentioned tests: For each peptide in a given buffer and at a given concentration, a sum of test scores was calculated and the sum used to rank the peptides according to solubility: • 1. […] DLS peak 1 number 3 nm gave a score of 1, 3-10 nm gave a score of 2, 10-100 nm gave a score of 3, >100 nm gave a score of 4. • 5. 90LS at 400 nm: Intensity <450 gave a score of 1, <800 gave a score of 2, >800 gave a score of 3. • 6. UV-VIS change in absorbance at 320 nm within 24 hours: 0.01 gave a score of 1, ≤0.05 gave a score of 2, 0.0.2 gave a score of 3 and >0.2 gave a score of 4.

Molecule: CC[C@H](C)[C@H](NC(=O)[C@H](C)NC(=O)[C@H](CCCCN)NC(=O)[C@@H](NC(=O)[C@H](CC(C)C)NC(=O)[C@H](C)NC(=O)[C@H](C)NC(=O)[C@H](CCC(=O)O)NC(=O)[C@H](Cc1ccccc1)NC(=O)[C@@H](NC(=O)[C@H](C)NC(=O)[C@H](Cc1ccc(O)cc1)NC(=O)[C@H](CCCCN)NC(=O)[C@@H](NC(=O)[C@H](CCC(=O)O)NC(=O)[C@@H]1CCCN1C(=O)[C@@H](N)CCCCN)C(C)C)C(C)C)[C@@H](C)O)C(=O)N[C@H](C(=O)O)[C@@H](C)O [peptide 142]
average relative magnitude [1]: around 8
donor coverage, dose response of single peptides ([2]; 0.002 μg/ml, 25 donor derived T cell lines): ~35%
average relative magnitude calculated over all donors ([2]; single peptides, FIG. 21): in the same range

Molecule: CC[C@H](C)[C@H](NC(=O)[C@@H](NC(=O)[C@H](CC(=O)O)NC(=O)[C@H](CCC(=O)O)NC(=O)[C@H](C)NC(=O)[C@H](CCC(=O)O)NC(=O)[C@@H](N)[C@@H](C)O)C(C)C)C(=O)N1CCC[C@H]1C(=O)N[C@@H](CCC(=O)O)C(=O)NCC(=O)N[C@@H](Cc1c[nH]c2ccccc12)C(=O)N[C@@H](CCCCN)C(=O)N[C@@H](C)C(=O)N[C@@H](CC(=O)O)C(=O)N[C@H](C(=O)N[C@@H](CO)C(=O)N[C@@H](Cc1ccc(O)cc1)C(=O)N[C@@H](CCC(=O)O)C(=O)N[C@@H](CO)C(=O)N[C@@H](CCCCN)C(=O)O)[C@@H](C)O [peptide 213]
experimental cross-reactivity [3]: showed cross-reactivity

Molecule: AYRTAATAANAAPAN-OH [compound 353]
Cross-reactivity score ([3]; homologue of peptide 241 (Phl p 5), Table 51, based on results from Study XR1 (score 5 upgraded to 7)): 7
cross-reactivity of homologue ([3]; homologues of peptide 241, Study XR1): very high cross-reactivity

Molecule: EAKYDAYVATLSEALRIIAG-OH [peptide 233]
experimental cross-reactivity [3]: showed cross-reactivity; also recorded: good cross reactivity

Molecule: GFKAALAAAAGVPPADKYRT-OH [peptide 230]
experimental cross-reactivity [3]: showed cross-reactivity

Molecule: GRGSGSSFEIKSTKPEASSG-OH [compound 202]
experimental cross-reactivity [3]: showed cross-reactivity

solubility, 1st round of solubility screening [4]: soluble
Visual inspection after 60 min pH 4.5 ([4]; 3 mg/mL, acetate salt, non-filtered, 250 mM D-Mannitol and 25 mM sodium acetate, pH 4.5): + particles
Visual inspection after centrifugation pH 4.5 ([4]; 3 mg/mL, acetate salt, non-filtered, 250 mM D-Mannitol and 25 mM sodium acetate, pH 4.5, after centrifugation): Ok
Visual inspection after 60 min pH 7 ([4]; 3 mg/mL, acetate salt, non-filtered, 250 mM D-Mannitol and 25 mM sodium phosphate, pH 7.0): particles +
Visual inspection after centrifugation pH 7 ([4]; 3 mg/mL, acetate salt, non-filtered, 250 mM D-Mannitol and 25 mM sodium phosphate, pH 7.0, after centrifugation): ++
solubility in all the test samples (concentrations and pH tested), all solubility tests [6]: good solubility
solubility in aqueous solutions and short-term stability [6]: sufficiently soluble
solubility [6]: acceptable solubility
Molecule: GSDPKKLVLNIKYTRPGDSL-OH [peptide 217]
experimental cross-reactivity [3]: showed cross-reactivity
Cross-reactivity score, Dac g ([5]; score 0 to 7): 1
Cross-reactivity score, Lol p ([5]; score 0 to 7): 5
Cross-reactivity sum [5]: 6
Cross-reactivity/species [5]: 3

Molecule: HGSEEWEPLTKKGNVWEVKS-OH [compound 218]
experimental cross-reactivity [3]: showed cross-reactivity

Molecule: KDKWIELKESWGAIWRIDTP-OH [peptide 210]
experimental cross-reactivity [3]: showed cross-reactivity

Molecule: TKKGNVWEVKSSKPLVGPFN-OH [peptide 219]
experimental cross-reactivity [3]: showed cross-reactivity

solubility, 1st round of solubility screening [4]: soluble
solubility in all the test samples (concentrations and pH tested), all solubility tests [6]: good solubility
solubility in aqueous solutions and short-term stability [6]: sufficiently soluble
solubility [6]: acceptable solubility
Molecule: YHFDLSGHAFGAMAKKGDEQ-OH [peptide 205]
experimental cross-reactivity [3]: showed cross-reactivity
Cross-reactivity score, Cyn d ([5]; homologue from Cyn d, score 0 to 7): 2
Cross-reactivity score, Dac g ([5]; score 0 to 7): 7
Cross-reactivity score, Fes p ([5]; homologue from Fes p, score 0 to 7): 7
Cross-reactivity score, Lol p ([5]; score 0 to 7): 7
Cross-reactivity score, Pha a ([5]; homologue from Pha a, score 0 to 7): 6
Cross-reactivity score, Poa p ([5]; homologue from Poa p, score 0 to 7): 3
Cross-reactivity score, Sor h ([5]; homologue from Sor h, score 0 to 7): 7
Cross-reactivity sum [5]: 39
Cross-reactivity/species [5]: 5
